This note sets out measurements from patent US20200216417A1, “INHIBITORS OF FIBROBLAST ACTIVATION PROTEIN” (Praxis Biotech LLC, priority 2019, published 2020).

The target of assay [1] is T1, DPPIV (Mus musculus, UniProt P28843).
T1 construct: from tissue; host or cells: C57BL/6 mouse plasma (EDTA)
The assay can be described thus: DPPIV enzymatic activity in mouse plasma (H-Gly-Pro-AMC). The format is biochemical, C57BL/6 mouse. Conditions: H-Gly-Pro-AMC substrate. The method, then:
Approximately 500 μL of whole blood from one C57BL/6 mouse was harvested into BD Microtainer® tubes (K2) EDTA (#365974, Becton Dickinson and Co.) via terminal cardiac puncture. The blood sample was immediately centrifuged at approximately 9000 g at 4° C. for 5 minutes. Plasma was separated and stored at −80° C. in aliquots of 300 μL. To assay baseline DPPIV enzymatic exopeptidase activity, 5 μL of thawed, mouse plasma was diluted (1:5) in buffer (100 mM Tris-HCl, 400 mM NaCl, 50 mM salicylic acid, 1 mM EDTA, pH 7.5) and mixed with 35 μL of the same buffer before being pre-incubated with different concentrations of 10 μL of test compounds or DMSO vehicle for 15 minutes at 37° C. in 96-well black plates (Nunc, #237108). After pre-incubation, 50 μL of 200 μM dipeptide substrate H-Gly-Pro-AMC (Bachem, # L-1225) was added to the mixture. The assay was performed for 1 hour at 37° C. 7-Amino-4-Methylcoumarin (AMC) release was detected measuring fluorescence at an excitation wavelength of 360 nm and an emission wavelength of 460 nm using a Multifunction Microplate Reader (Synergy 4, Biotek). All measurements were carried out at least in duplicate.

In assay [2] the target is T2, recombinant human DPP9 (rhDPP9) (Homo sapiens, UniProt Q86TI2).
T2 construct: purchased R&S system / R&D systems (both sic) 5419-SE
T2 sequence (Q86TI2 whole entry): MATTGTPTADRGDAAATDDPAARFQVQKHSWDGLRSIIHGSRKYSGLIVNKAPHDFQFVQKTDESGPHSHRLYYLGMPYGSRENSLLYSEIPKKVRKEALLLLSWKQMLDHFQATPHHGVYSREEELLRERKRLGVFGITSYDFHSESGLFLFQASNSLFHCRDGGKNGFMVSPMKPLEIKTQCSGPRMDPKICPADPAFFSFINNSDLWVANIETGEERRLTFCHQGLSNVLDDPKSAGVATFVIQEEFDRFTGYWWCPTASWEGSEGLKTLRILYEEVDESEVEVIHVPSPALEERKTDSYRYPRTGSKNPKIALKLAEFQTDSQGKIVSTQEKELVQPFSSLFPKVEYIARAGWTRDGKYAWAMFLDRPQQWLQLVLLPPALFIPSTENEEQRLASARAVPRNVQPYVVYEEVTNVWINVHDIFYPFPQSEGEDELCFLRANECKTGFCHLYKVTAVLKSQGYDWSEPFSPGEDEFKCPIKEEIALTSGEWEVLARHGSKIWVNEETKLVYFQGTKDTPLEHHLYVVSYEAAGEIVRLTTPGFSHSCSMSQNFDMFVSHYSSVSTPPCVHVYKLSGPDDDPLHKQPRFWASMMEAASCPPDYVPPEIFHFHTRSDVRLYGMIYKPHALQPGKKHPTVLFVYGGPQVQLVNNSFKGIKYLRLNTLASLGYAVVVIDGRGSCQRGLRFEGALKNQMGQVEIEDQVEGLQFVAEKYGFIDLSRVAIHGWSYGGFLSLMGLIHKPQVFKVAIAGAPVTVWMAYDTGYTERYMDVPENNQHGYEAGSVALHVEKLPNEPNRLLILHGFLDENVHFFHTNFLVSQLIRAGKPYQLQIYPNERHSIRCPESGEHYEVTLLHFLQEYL
Description: DPP9 enzymatic activity assay, 40 ng rhDPP9, HEPES buffer. The assay is classed as biochemical. Conditions: Table 3A.

Assay [3] has as its target T2, recombinant human DPP9 (rhDPP9). Description: DPP9 inhibition assay, 10 ng rhDPP9, Tris-HCl/BSA buffer. The assay is classed as biochemical. Conditions: Table 3B.
Assay [4] addresses T3, circulating FAPα (Homo sapiens, UniProt Q12884).
T3 construct: from tissue; host or cells: human plasma (EDTA-K2) from healthy volunteers
T3 sequence (Q12884 24-760 limits assumed): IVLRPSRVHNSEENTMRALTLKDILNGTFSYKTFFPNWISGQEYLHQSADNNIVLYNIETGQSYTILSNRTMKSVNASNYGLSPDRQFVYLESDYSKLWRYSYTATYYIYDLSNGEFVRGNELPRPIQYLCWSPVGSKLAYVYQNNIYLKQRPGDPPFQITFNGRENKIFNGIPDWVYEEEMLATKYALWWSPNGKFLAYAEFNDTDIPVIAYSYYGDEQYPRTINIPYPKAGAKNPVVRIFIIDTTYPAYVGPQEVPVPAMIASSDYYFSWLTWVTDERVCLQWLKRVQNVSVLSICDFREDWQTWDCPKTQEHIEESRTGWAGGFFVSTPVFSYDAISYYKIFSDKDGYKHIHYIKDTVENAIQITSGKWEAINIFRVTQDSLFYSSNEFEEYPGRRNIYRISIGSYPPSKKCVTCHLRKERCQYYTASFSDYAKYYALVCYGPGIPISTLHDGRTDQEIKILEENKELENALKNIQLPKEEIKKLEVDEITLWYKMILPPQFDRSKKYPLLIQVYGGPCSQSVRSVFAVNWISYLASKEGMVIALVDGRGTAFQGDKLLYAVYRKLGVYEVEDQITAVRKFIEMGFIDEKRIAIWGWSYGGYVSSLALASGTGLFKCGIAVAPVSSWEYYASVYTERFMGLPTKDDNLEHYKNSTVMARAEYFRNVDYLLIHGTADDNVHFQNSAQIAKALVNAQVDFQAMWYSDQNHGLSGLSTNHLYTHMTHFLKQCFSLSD
Description: Ex vivo inhibition of circulating FAPα activity from human plasma (PRXS-AMC). The assay is classed as biochemical. How it is done:
Human blood was obtained from healthy young volunteers. Blood samples were collected in tubes coated with EDTA-K2 by venipuncture method, mixed gently, then kept on ice and centrifuged at 2,500×g for 15 minutes at 4° C. After plasma separation, samples were stored at −80° C. in aliquots of 300 μL.
Exemplary compounds were allowed to interact with the enzyme for 15 minutes at 37° C. After pre-incubation, 50 μl of 200 μM PRXS-AMC substrate were added to the all mixtures. All reactions were carried out for 1 h at 37° C. protected from light. AMC release was detected measuring fluorescence at an excitation/emission wavelength of 380/460 nm using a Multifunction Microplate Reader. All measurements were carried out as single point.

Assay [5] deals with circulating FAPα (Mesocricetus auratus, UniProt A0ABM2XF29). The assay can be described thus: Ex vivo inhibition of circulating FAPα activity from hamster plasma (PRXS-AMC). The assay is classed as biochemical, Golden Syrian hamster. The method, then:
Male Golden Syrian hamsters were provided by National Laboratory Animal Center (NLAC) in Taiwan. The animals were maintained in a hygienic environment under controlled temperature (20-24° C.) and humidity (50%-80%) with 12 hours light/dark cycles. Free access to standard lab diet [MFG (Oriental Yeast Co., Ltd. Japan)] and autoclaved tap water were granted. All aspects of this work including housing, experimentation and disposal of animals were performed in general accordance with the “Guide for the Care and Use of Laboratory Animals: Eighth Edition” (National Academies Press, Washington, D.C., 2011). In addition, the animal care and use protocol was reviewed and approved by the IACUC at Pharmacology Discovery Services Taiwan, Ltd. Immediately after the sacrifice of hamsters, blood samples were collected via terminal cardiac puncture in tubes coated with EDTA-K2, mixed gently, then kept on ice and centrifuged at 2,500×g for 15 minutes at 4° C. After plasma separation, samples were stored at −80° C. in aliquots of 300 μL. To assay exemplary compounds in hamster plasma, a similar protocol as described for human plasma was performed diluting thawed plasma 1:2 in cFAP buffer. […] AMC release was detected measuring fluorescence at an excitation/emission wavelength of 380/460 nm using a Multifunction Microplate Reader. […]

T1 sequence (P28843 37-760 limits assumed): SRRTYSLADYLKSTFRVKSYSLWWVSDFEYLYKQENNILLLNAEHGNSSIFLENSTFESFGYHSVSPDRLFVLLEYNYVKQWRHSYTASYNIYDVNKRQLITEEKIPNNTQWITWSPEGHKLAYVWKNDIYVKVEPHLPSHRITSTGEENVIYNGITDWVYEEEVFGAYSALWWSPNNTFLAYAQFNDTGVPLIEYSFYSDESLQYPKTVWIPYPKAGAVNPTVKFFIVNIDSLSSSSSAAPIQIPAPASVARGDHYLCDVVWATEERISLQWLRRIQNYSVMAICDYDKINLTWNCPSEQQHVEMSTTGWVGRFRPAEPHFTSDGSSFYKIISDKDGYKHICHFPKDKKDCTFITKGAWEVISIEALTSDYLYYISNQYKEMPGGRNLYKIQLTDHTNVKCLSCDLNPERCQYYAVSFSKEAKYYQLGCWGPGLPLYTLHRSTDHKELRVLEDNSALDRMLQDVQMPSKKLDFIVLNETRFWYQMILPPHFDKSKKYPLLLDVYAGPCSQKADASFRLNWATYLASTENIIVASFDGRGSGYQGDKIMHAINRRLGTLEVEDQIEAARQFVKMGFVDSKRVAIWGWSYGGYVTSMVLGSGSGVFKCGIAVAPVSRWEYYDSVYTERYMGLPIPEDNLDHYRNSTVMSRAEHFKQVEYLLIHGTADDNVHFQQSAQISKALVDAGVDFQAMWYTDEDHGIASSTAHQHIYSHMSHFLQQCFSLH
Sequence of circulating FAPα (Mesocricetus auratus, UniProt A0ABM2XF29) (A0ABM2XF29 24-761 limits assumed): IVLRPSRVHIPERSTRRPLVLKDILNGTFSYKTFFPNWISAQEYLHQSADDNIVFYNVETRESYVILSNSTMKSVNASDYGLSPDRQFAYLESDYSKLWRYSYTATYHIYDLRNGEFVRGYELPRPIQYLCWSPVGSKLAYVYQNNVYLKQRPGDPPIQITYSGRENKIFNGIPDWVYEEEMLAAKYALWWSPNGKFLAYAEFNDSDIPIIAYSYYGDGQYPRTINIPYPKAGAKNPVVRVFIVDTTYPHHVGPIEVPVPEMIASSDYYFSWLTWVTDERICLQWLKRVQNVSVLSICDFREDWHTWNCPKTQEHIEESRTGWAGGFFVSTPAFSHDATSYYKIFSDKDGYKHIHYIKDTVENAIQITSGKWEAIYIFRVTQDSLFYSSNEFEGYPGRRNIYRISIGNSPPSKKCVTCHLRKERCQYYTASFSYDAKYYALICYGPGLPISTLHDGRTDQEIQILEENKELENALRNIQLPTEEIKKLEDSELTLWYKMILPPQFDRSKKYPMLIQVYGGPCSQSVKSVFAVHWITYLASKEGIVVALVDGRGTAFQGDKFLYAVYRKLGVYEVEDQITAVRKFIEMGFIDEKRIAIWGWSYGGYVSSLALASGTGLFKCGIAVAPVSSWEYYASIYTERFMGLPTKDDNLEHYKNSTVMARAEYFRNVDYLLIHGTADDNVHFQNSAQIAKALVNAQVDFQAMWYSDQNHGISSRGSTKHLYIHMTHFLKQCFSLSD

As to `N#C[C@@H]1CC(F)(F)CN1C(=O)CNC(=O)c1ccncc1NCc1ccc(F)cc1` [Compound 2, (S)—N-(2-(2-cyano-4,4-difluoropyrrolidin-1-yl)-2-oxoethyl)-3-((4-fluorobenzyl)amino)isonicotinamide], the concentration for half-maximal inhibition (IC50) – broadly, the concentration at which inhibition is half-maximal – is less than 10 µM in assay [1], greater than 10 µM in assay [2] and greater than 10 µM in assay [3].

With `COc1ccc(C(=O)Nc2cnccc2C(=O)NCC(=O)N2CC(F)(F)C[C@H]2C#N)cc1` [Compound 3, (S)—N-(2-(2-cyano-4,4-difluoropyrrolidin-1-yl)-2-oxoethyl)-3-(4-methoxybenzamido)isonicotinamide], the IC50 was 1 to 10 µM in assay [1]; 1 to 10 µM in assay [2]; less than 1 µM in assay [4]; less than 1 µM in assay [5]; 1 to 10 µM in assay [3].

For the compound `N#C[C@@H]1CC(F)(F)CN1C(=O)CNC(=O)c1ccncc1NC(=O)COc1ccc(Cl)c(F)c1` [Compound 5, (S)-3-(2-(4-chloro-3-fluorophenoxy)acetamido)-N-(2-(2-cyano-4,4-difluoropyrrolidin-1-yl)-2-oxoethyl)isonicotinamide], the figures for the IC50 in assay [1], in assay [2] and in assay [3] were less than 1 µM, 1 to 10 µM and 1 to 10 µM, respectively.

For the compound `N#C[C@@H]1CC(F)(F)CN1C(=O)CNC(=O)c1ccncc1Cc1ccccc1F` [Compound 7, (S)—N-(2-(2-cyano-4,4-difluoropyrrolidin-1-yl)-2-oxoethyl)-3-(2-fluorobenzyl)isonicotinamide], the IC50 was less than 10 µM in assay [1], 1 to 10 µM in assay [2] and 1 to 10 µM in assay [3].

Turning to `N#C[C@@H]1CC(F)(F)CN1C(=O)CNC(=O)c1ccncc1Cc1ccc(F)cc1` [Compound 8, (S)—N-(2-(2-cyano-4,4-difluoropyrrolidin-1-yl)-2-oxoethyl)-3-(4-fluorobenzyl)isonicotinamide], the IC50 was less than 10 µM in assay [1], 1 to 10 µM in assay [2] and 1 to 10 µM in assay [3].

Turning to `N#C[C@@H]1CC(F)(F)CN1C(=O)CNC(=O)c1ccncc1/C=C/c1ccc(Cl)cc1` [Compound 9, (S,E)-3-(4-chlorostyryl)-N-(2-(2-cyano-4,4-difluoropyrrolidin-1-yl)-2-oxoethyl)isonicotinamide], the half-inhibitory concentration (IC50) in assay [1] was less than 10 µM; in assay [2] it was less than 1 µM; in assay [4] it was less than 1 µM; in assay [5] it was less than 1 µM; in assay [3], less than 1 µM.
